The target in data set [1] is T1, ABCB1, human P-glycoprotein (Pgp) (Homo sapiens, UniProt P08183).
T1 construct: host or cells: MDCKII cells
Briefly: In vitro determination of efflux by Pgp, bi-directional transport across MDCKII cells. The class given is in vitro ADME. The conditions noted are these: MDCKII-ABCB1, 5 μM substrate, 60 min, B-A/A-B Papp ratios with and without inhibitor. The procedure:
Cell Culture: MDCKII cells stably expressing human wild-type ABCB1 (Pgp) are obtained from the Netherlands Cancer Institute (Amsterdam, The Netherlands). MDCK cells are maintained as described previously (Desai et al., Mol Pharm 10:1249-1261, 2013).
Bi-directional transport across MDCK cells: The assay is essentially conducted as described previously (Desai et al., Mol Pharm 10:1249-1261, 2013). Transport is measured in both directions across uninhibited and inhibited cell monolayers using a substrate concentration of 5 μM diluted from a 10 mM DMSO stock solution (final DMSO concentration of 0.05%) and a single 60-min time interval. […] The apparent permeability coefficients (Papp) are estimated as the slope of the mass transported per 60 min relative to the total recovered mass. The basal-to-apical (B-A)/apical-to-basal (A-B) Papp ratios are calculated in the absence or presence of inhibitor in each cell line for net efflux ratio (NER).

For data set [2], the target named is T2, human CGRP receptor heterodimer (Homo sapiens, UniProt O60894+Q16602).
T2 construct: Human SK-N-MC neuroblastoma cells, endogenously expressing the human CGRP receptor, are expanded in culture flasks; host or cells: P2 membranes of SK-N-MC neuroblastoma cells
Briefly: Competition filtration binding with [3H]BIBN-4096 on SK-N-MC cell membranes. The conditions noted are these: [3H]BIBN-4096 130 pM, mean. The text has this:
The equilibrium affinity constant (Ki) at the human CGRP receptor heterodimer may be determined using standard competition filtration binding methods with membranes prepared from cultured SK-N-MC neuroblastoma cells (ATCC) and a high-affinity CGRP receptor antagonist.
Membrane Production: Human SK-N-MC neuroblastoma cells, endogenously expressing the human CGRP receptor, are expanded in culture flasks (Corning, T225) using growth media containing Eagles's Minimum Essential Media (HyClone™) supplemented with 10% heat-inactivated fetal bovine serum (GIBCO®). When cell monolayers achieve a level of 70-80% confluence, they are dissociated from the culture flasks using TrypLE™ cell dissociation media (ThermoFisher Scientific). Dissociated cells are pelleted by centrifugation at 300×g to remove the growth and dissociation media. Centrifuged cell pellets are flash frozen in liquid nitrogen (−320° F.) for 30 sec and stored frozen at −80° C. until the subsequent membrane preparation.
A membrane preparation P2 pellet (second pellet from centrifugation procedure) is generated from harvested SK-N-MC frozen cultured cell pellets by diluting these cells on ice into 20 mM Tris-HCl buffer, pH 7.4, containing protease inhibitors (Pierce). Suspended cells are Dounce homogenized on ice and centrifuged at low speed (1000×g for 20 min at 4° C.) to remove cellular organelles and debris (P1 pellet). The supernatant, containing the soluble membrane fraction, is collected and subjected to a high speed centrifugation step (25,000×g for 1 hr at 4° C.) to isolate the resultant P2 membrane pellet. […] Protein concentration is determined using the Bradford Protein Assay (ThermoFisher Scientific). […]
Data Analysis: Bound radioactivity may be counted using a MicroBeta® Trilux Scintillation Counter (PerkinElmer®). […] Relative IC50 values are calculated using a four-parameter logistic curve fitting program (GraphPad Prism v8.3.0). Equilibrium dissociation binding constants (Ki) for the compounds are calculated from the following equation: […]

A word on the Ki: it is the dissociation constant of the complex between target and ligand, obtained from inhibition or displacement.

With `Cc1cc(N2CCC2)cc(OCc2ccc([C@@H](C)[C@@]3(C)C(=O)NC[C@@H]3CF)cc2)n1` [Example 1, (3R,4R)-3-[(1R)-1-[4-[[4-(azetidin-1-yl)-6-methyl-2-pyridyl]oxymethyl]phenyl]ethyl]-4-(fluoromethyl)-3-methyl-pyrrolidin-2-one], the “net efflux ratio (NER) for efflux by Pgp” value in data set [1] worked out at 1.9. Further, in data set [2], the affinity corresponds to a Ki of 350 pM.
The like results for `Cc1cc(N2CC(F)C2)cc(OCc2ccc([C@@H](C)[C@@]3(C)C(=O)NC[C@@H]3C)cc2)n1` [Example 2, (3R,4R)-3-[(1R)-1-[4-[[4-(3-fluoroazetidin-1-yl)-6-methyl-2-pyridyl]oxymethyl]phenyl]ethyl]-3,4-dimethyl-pyrrolidin-2-one] were, in that order, 1.6 and 980 pM.
In turn, `Cc1cc(N2CC(F)C2)cc(OCc2ccc([C@@H](C)[C@@]3(C)C(=O)NC[C@@H]3CF)cc2)n1` [Example 3, (3R,4R)-3-[(1R)-1-[4-[[4-(3-fluoroazetidin-1-yl)-6-methyl-2-pyridyl]oxymethyl]phenyl]ethyl]-4-(fluoromethyl)-3-methyl-pyrrolidin-2-one] showed a Ki in data set [2] of 930 pM.

Source of the values: patent US20230096051A1, “CGRP ANTIGONISTS USEFUL AS TRACER COMPOUNDS FOR POSITRON EMISSION TOMOGRAPHY” (Eli Lilly and Company, priority 2019, published 2023).
